Assay [1] can be described thus: DRUGMATRIX: Leukotriene, BLT (LTB4) radioligand binding (ligand: [3H]LTB4). In kind it is cell membranes, Membrane. Particulars: u-937; Not Active = under 50% inhibition at 10 µM.
The target of a further assay is T1, Thromboxane-A synthase (Homo sapiens, UniProt P24557).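 Further: enzyme inhibition assay with PGH2 supplied as substrate; in other assays of this panel Not Active means under 50% inhibition at 10 µM.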
T1 sequence (P24557 whole entry): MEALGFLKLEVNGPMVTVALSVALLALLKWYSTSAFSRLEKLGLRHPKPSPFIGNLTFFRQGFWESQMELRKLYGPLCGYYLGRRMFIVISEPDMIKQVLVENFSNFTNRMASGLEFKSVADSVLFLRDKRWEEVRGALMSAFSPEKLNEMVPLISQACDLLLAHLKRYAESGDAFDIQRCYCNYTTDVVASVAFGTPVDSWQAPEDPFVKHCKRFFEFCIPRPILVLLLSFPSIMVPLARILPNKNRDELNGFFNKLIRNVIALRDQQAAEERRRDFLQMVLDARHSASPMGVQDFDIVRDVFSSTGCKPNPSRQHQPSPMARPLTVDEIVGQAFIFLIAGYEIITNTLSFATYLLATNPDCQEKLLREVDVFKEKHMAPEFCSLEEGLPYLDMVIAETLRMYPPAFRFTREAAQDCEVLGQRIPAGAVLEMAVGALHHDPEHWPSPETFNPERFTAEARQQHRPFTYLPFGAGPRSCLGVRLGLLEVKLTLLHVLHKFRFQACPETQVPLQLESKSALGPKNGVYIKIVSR
Kind of assay: biochemical. In kind it is tissue-based, Platelet.

The target of another assay is T2, Cathepsin G (Homo sapiens, UniProt P08311).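 Further: inhibition of Cathepsin G enzyme activity, tested on an AMC-conjugated peptide substrate; in other assays of this panel Not Active means under 50% inhibition at 10 µM.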
T2 sequence (P08311 whole entry): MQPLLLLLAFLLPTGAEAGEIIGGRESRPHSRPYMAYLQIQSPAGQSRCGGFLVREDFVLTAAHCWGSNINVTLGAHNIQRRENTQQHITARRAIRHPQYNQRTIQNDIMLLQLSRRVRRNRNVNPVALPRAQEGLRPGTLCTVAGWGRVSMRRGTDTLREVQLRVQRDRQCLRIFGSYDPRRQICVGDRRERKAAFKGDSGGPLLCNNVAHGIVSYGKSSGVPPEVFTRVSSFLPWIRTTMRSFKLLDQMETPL
In kind it is tissue-based. Particulars: neutrophil.

Assay [2] is described as follows: DRUGMATRIX: Atrial Natriuretic Factor (ANF) radioligand binding (ligand: [125I] ANF (rat)). Particulars: Not Active = under 50% inhibition at 10 µM. In kind it is cell membranes, Cavia porcellus, Dunkin-Hartley, Adrenal gland, Membrane.
In assay [3] the target is Aldo-keto reductase family 1 member B1 (Rattus norvegicus, UniProt P07943). Kind of assay: biochemical. In kind it is tissue-based, Lens of camera-type eye.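 Further: inhibition of aldose reductase enzyme activity, measured with DL-glyceraldehyde as the substrate; in other assays of this panel Not Active means under 50% inhibition at 10 µM.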
A short description of assay [4]: DRUGMATRIX: Purinergic P2X radioligand binding (ligand: [3H] alpha, beta-Methylene-ATP). In kind it is cell membranes, Oryctolagus cuniculus, New Zealand albino, Urinary bladder, Membrane. Particulars: Not Active = under 50% inhibition at 10 µM.
The nature of assay [5]: DRUGMATRIX: ATPase, Na+/K+ enzyme inhibition (substrate: ATP). Particulars: Not Active = under 50% inhibition at 10 µM. In kind it is tissue-based, Sus scrofa, Heart.
Assay [6] concerns the target C-C chemokine receptor type 2 (Homo sapiens, UniProt P41597). In kind it is cell membranes, CHO-K1, Membrane. Particulars: cho-k1. Further: in other assays of this panel Not Active means under 50% inhibition at 10 µM.

Consider 13 compounds from ChEMBL document CHEMBL1909046, “DrugMatrix in vitro pharmacology data”.

Molecules are shown by their SMILES.

C-C chemokine receptor type 2, sequence (P41597 whole entry): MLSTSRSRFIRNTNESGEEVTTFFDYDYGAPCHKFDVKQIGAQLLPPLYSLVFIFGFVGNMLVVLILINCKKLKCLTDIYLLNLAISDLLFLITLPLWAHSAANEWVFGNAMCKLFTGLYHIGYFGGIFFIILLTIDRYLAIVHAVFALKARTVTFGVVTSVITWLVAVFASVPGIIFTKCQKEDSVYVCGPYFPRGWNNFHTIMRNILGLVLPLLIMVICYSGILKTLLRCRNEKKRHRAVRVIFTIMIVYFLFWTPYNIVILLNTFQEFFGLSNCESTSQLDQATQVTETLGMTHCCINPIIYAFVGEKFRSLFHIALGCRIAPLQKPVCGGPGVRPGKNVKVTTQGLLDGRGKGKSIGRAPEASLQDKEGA

On to `CCC(C)n1ncn(-c2ccc(N3CCN(c4ccc(OCC5COC(Cn6cncn6)(c6ccc(Cl)cc6Cl)O5)cc4)CC3)cc2)c1=O` (stereo not given) [ITRACONAZOLE], for which the half-maximal inhibitory concentration (IC50) entry (in assay [1]; on Thromboxane-A synthase (platelet); against Cathepsin G; in assay [2]; in assay [3]; in assay [4]) was “Not Active” each time. Moreover, the IC50 entry in assay [5] and in assay [6] was “Not Active” throughout. The Ki entry in assay [1], in assay [2], in assay [4] and in assay [5] was “Not Active” in each case.

`Nc1c(Br)cc(Br)cc1CN[C@H]1CC[C@H](O)CC1` [AMBROXOL]: the IC50 entry (in assay [1]; against Thromboxane-A synthase (platelet); on Cathepsin G; in assay [2]; in assay [3]; in assay [4]) was “Not Active” each time. Moreover, the IC50 result in assay [5] and in assay [6] was “Not Active” each time. Besides, the Ki entry in assay [1], in assay [2], in assay [4] and in assay [5] was “Not Active” each time.

Consider `CC(C)(C)NCC(O)c1cc(Cl)c(N)c(Cl)c1` (stereo not given) [CLENBUTEROL], for which the IC50 entry (in assay [1]; against Thromboxane-A synthase (platelet); at Cathepsin G; in assay [2]; in assay [3]; in assay [4]) was “Not Active” each time. Further, the IC50 entry in assay [5] and in assay [6] was “Not Active” in each case. Besides, the Ki entry in assay [1], in assay [2], in assay [4] and in assay [5] was “Not Active” in each case.

`C[C@](N)(Cc1ccc(O)c(O)c1)C(=O)O` [METHYLDOPA]: the IC50 entry (in assay [1]; at Thromboxane-A synthase (platelet); on Cathepsin G; in assay [2]; in assay [3]; in assay [4]) was “Not Active” each time. For the same compound, the IC50 result in assay [5] and in assay [6] was “Not Active” throughout. For the same compound, the Ki entry in assay [1], in assay [2], in assay [4] and in assay [5] was “Not Active” each time.

Take `Cc1ccccc1N1C(=O)c2cc(S(N)(=O)=O)c(Cl)cc2NC1C` (stereo not given) [METOLAZONE]: the 50% inhibitory concentration (IC50) result (in assay [1]; against Thromboxane-A synthase (platelet); against Cathepsin G; in assay [2]; in assay [3]; in assay [4]) was “Not Active” in each case. Besides, the IC50 entry in assay [5] and in assay [6] was “Not Active” throughout. Moreover, the Ki entry in assay [1], in assay [2], in assay [4] and in assay [5] was “Not Active” throughout.

Consider `Cc1ccc(N(CC2=NCCN2)c2cccc(O)c2)cc1` [PHENTOLAMINE], for which the IC50 result (in assay [1]; at Thromboxane-A synthase (platelet); against Cathepsin G; in assay [2]; in assay [3]; in assay [4]) was “Not Active” in each case. The IC50 result in assay [5] and in assay [6] was “Not Active” in each case. Besides, the Ki result in assay [1], in assay [2], in assay [4] and in assay [5] was “Not Active” each time.

As to `Nc1nc2c(ncn2CCC(CO)CO)c(=O)[nH]1` [PENCICLOVIR], the IC50 result (in assay [1]; against Thromboxane-A synthase (platelet); against Cathepsin G; in assay [2]; in assay [3]; in assay [4]) was “Not Active” throughout. In addition, the IC50 result in assay [5] and in assay [6] was “Not Active” each time. Besides, the Ki result in assay [1], in assay [2], in assay [4] and in assay [5] was “Not Active” each time.

Turning to `CCOc1ccc(NC(C)=O)cc1` [PHENACETIN], the half-inhibitory concentration (IC50) result (in assay [1]; at Thromboxane-A synthase (platelet); against Cathepsin G; in assay [2]; in assay [3]; in assay [4]) was “Not Active” each time. Also, the 50% inhibitory concentration (IC50) result in assay [5] and in assay [6] was “Not Active” each time. For the same compound, the Ki result in assay [1], in assay [2], in assay [4] and in assay [5] was “Not Active” throughout.

For `Cc1cc(C(C#N)c2ccc(Cl)cc2)c(Cl)cc1NC(=O)c1cc(I)cc(I)c1O` (stereo not given) [CLOSANTEL], the IC50 result is “Not Active” in assay [1]; 64 nM at Thromboxane-A synthase (read-out: IC50); “Not Active” against Cathepsin G; “Not Active” in assay [2]; “Not Active” in assay [3]; “Not Active” in assay [4]. In addition, the half-inhibitory concentration (IC50) in assay [5] (read-out: IC50) was 4880 nM; in assay [6], “Not Active”. Further, the Ki entry in assay [1], in assay [2] and in assay [4] was “Not Active” throughout.

For the compound `C[C@]12CC[C@@H]3c4ccc(O)cc4CC[C@H]3[C@@H]1CCC2=O` [ESTRONE], the IC50 result (in assay [1]; on Thromboxane-A synthase (platelet); at Cathepsin G; in assay [2]; in assay [3]; in assay [4]) was “Not Active” each time. The IC50 result in assay [5] and in assay [6] was “Not Active” in each case. In addition, the Ki entry in assay [1], in assay [2], in assay [4] and in assay [5] was “Not Active” throughout.

Regarding `NC1=NC(=O)C(c2ccccc2)O1` (stereo not given) [PEMOLINE], the concentration for half-maximal inhibition (IC50) entry (in assay [1]; against Thromboxane-A synthase (platelet); on Cathepsin G; in assay [2]; in assay [3]; in assay [4]) was “Not Active” throughout. In addition, the IC50 result in assay [5] and in assay [6] was “Not Active” throughout. For the same compound, the Ki result in assay [1], in assay [2], in assay [4] and in assay [5] was “Not Active” each time.

In the case of `CN(C)C(=O)Oc1cc(OC(=O)N(C)C)cc(C(O)CNC(C)(C)C)c1` (stereo not given) [BAMBUTEROL], the IC50 entry (in assay [1]; at Thromboxane-A synthase (platelet); on Cathepsin G; in assay [2]; in assay [3]; in assay [4]) was “Not Active” in each case. Moreover, the IC50 entry in assay [5] and in assay [6] was “Not Active” throughout. For the same compound, the Ki entry in assay [1], in assay [2], in assay [4] and in assay [5] was “Not Active” in each case.

On to `C[C@H]1c2cccc(O)c2C(=O)C2=C(O)[C@]3(O)C(=O)C(C(N)=O)=C(O)[C@@H](N(C)C)[C@@H]3[C@@H](O)[C@@H]21.O` [DOXYCYCLINE], for which the half-inhibitory concentration (IC50) result (in assay [1]; at Thromboxane-A synthase (platelet); against Cathepsin G; in assay [2]; in assay [3]; in assay [4]) was “Not Active” in each case. The half-maximal inhibitory concentration (IC50) entry in assay [5] and in assay [6] was “Not Active” throughout. For the same compound, the Ki entry in assay [1], in assay [2], in assay [4] and in assay [5] was “Not Active” each time.
